Measurements from patent publication US11324752B2, “Imeglimin for preventing and/or treating hepatocellular carcinoma” (ERICARE, priority 2017, dated 2022).
“Also recorded” adds a separate entry of the source. Where a name gives a salt, the structure may show the parent alone.

Key:
[1] = system: HepG2 line; details: for growth in volume of grafted tumors compared to placebo control group: FIG. 1
Method: In vivo anti-tumor activity of imeglimin compared to that of metformin, alone or in combination with sorafenib, on subcutaneous xenograft models of the CHC HepG2 line in 6 week old female mice with a BALB/c nude genetic background (Harlan).
Two million cells of the HepG2 line are injected into the left side of each mouse in a volume of 100 μl (50 μl PBS-50 μl matrigel). Mice developing a palpable tumor are randomized into 7 groups of
treatment of 14 mice according to the following design: placebo, imeglimin 75 mg/kg/day, imeglimin 150 mg/kg/day, metformin 75 mg/kg/day, sorafenib 40 mg/kg/day, imeglimin 75 mg/kg/day+sorafenib 40 mg/kg/day, metformin 75 mg/kg/day+sorafenib 40 mg/kg/day.
Metformin and imeglimin are administered in drinking water, sorafenib is administered by oral gavage. Treatment begins on the day of randomization.
The treatments were administered for 63 days. The evolution curves of the tumor volumes, as well as those of the weight of the animals, were analyzed during this period. The appearance of tumors and organs has been the subject of a macroscopic anatomic-pathological analysis.

[2] = system: hepatocellular carcinoma; details: cited from earlier work
[3] = seven Phase 2 studies, 611 patients; cited from earlier work
[4] = system: HuH7; assay: MTS Promega cell proliferation assay, HuH7; format: cell-based, human
Method: (§1) In vitro anti-proliferative effect of imeglimin compared to that of metformin in 2 models of human hepatocellular carcinoma (HCC). Determination of IC50 (median inhibitory concentration) by the MTS Promega™ cell proliferation assay (CellTiter 96™ AQueous Nonradioactive Cell Proliferation Assay Kit).
(§2) Different mM concentrations (0, 0.1, 0.25, 0.5, 1.0, 2.5, 5.0, 7.5, 10, 25, 50, 100) of imeglimin and metformin were tested in vitro on two human CHC cell lines, HepG2 and HuH7, over a period of 6 days.

[5] = system: HepG2; assay: MTS Promega cell proliferation assay, HepG2; format: cell-based, human; details: period of 6 days
Method: as §1, §2

[6] = cited from earlier work
[7] = seven Phase 1 studies, 216 subjects; cited from earlier work
[8] = system: mitochondrial I complex; details: cited from earlier work
[9] = STZ diabetic rat; 35 days; 50 and 100 mg/kg/day; cited from earlier work
[10] = system: human liver tumor cells; details: immunocompromised mice; cited from earlier work
[11] = system: HuH7; details: in vitro; cited from earlier work
[12] = system: HepG2; details: in vitro; cited from earlier work
[13] = in particular hepatocellular carcinoma; cited from earlier work
[14] = 1500 mg twice daily, similar to 850 mg of metformin twice daily

In the case of `CNC(=O)c1cc(Oc2ccc(NC(=O)Nc3ccc(Cl)c(C(F)(F)F)c3)cc2)ccn1` [sorafenib, reference compound], the “growth in volume of grafted tumors compared to placebo control group” value (shortened to “growth … compared to placebo control group”) ([1]; 63 days of treatment) is given as “slow down the growth in volume of grafted tumors”, the “anti-angiogenic effect, observation at sacrifice” value ([1]; sorafenib 40 mg/kg/day alone or with imeglimin 75 mg/kg/day) is given as “exerts its anti-angiogenic properties” and the median survival time ([2]; patients with advanced hepatocellular carcinoma) is given as 10.7 months. For the same compound, the “most important side effects” value ([2]; sorafenib group) was “Diarrhea, weight loss, hand-foot syndrome and hypophosphatemia”.
In the case of `C[C@H]1N=C(N(C)C)N=C(N)N1` [imeglimin, (6R)-(+)-4-dimethylamino-2-imino-6-methyl-1,2,5,6-tetrahydro-1,3,5-triazine hydrochloride], the “tolerance and safety of use” value [3] is listed as “excellent tolerance and safety of use similar to those of the placebo”, the “effect on HuH7 line compared with HepG2 line” value [4] is listed as “much more marked” and the “change of inhibitory effect with time” value ([4]; period of 6 days) is listed as “increases with time”. The “dose effect on tumor growth” value ([1]; 75 mg/kg/day to 150 mg/kg/day, hydrochloride) was “dose-dependent inhibitory effect on tumor growth; also recorded: increases with the doubling of doses”, the “mean weight of the animals” value ([1]; 63 days of treatment) was “did not change” and the toxicity of treatment ([1]; 63 days of treatment) was “did not prove to be toxic”. The “growth … compared to placebo control group” value ([1]; 63 days of treatment) was “slow down the growth in volume of grafted tumors”, the “effect on tumor volume compared with metformin” value ([1]; imeglimin 150 mg/kg/day vs metformin 75 mg/kg/day (equipotent doses), hydrochloride) was “higher than metformin; also recorded: significantly greater than that of metformin” and the “effect on tumor volume compared with sorafenib” value ([1]; imeglimin 150 mg/kg/day vs sorafenib 40 mg/kg/day, hydrochloride) was “not significantly different from sorafenib; also recorded: does not have a significantly different effect”. For the same compound, the “change of inhibitory effect with time” value [5] was “increases with time”, the fasting glucose levels [6, 14] was “improves” and the “hemoglobin A1c” value [6, 14] was “improves”. For the same compound, the “tolerance profile compared with metformin” value ([6]; diabetic patients) was “greater than that of metformin”, the “administration safety and tolerance” value [7] was “excellent administration safety and tolerance” and the “inhibition of mitochondrial I complex” value [8] was “does not inhibit”. For the same compound, the HbA1c [9] was “significantly decreased” and the fasting blood glucose [9] was “significantly decreased”.
For `CN(C)C(=N)N=C(N)N` [metformin], the anti-cancer activity [10] is listed as “exhibits anti-cancer activity”, the “growth … compared to placebo control group” value ([1]; 63 days of treatment) is listed as “slow down the growth in volume of grafted tumors” and the “cell growth inhibitory activity” value [11] is listed as “has cell growth inhibitory activity”. For the same compound, the “cell growth inhibitory activity” value [12] was “has cell growth inhibitory activity” and the “cancers in treated patients with type 2 diabetes versus other anti-diabetic drugs” value [13] was “fewer cancers”.
